According to publication PMC6014686, “Thienopyrimidinone Based Sirtuin-2 (SIRT2)-Selective Inhibitors Bind in the Ligand Induced Selectivity Pocket” (Journal of Medicinal Chemistry, 2017):
Entries after “also recorded” stand apart in the source; their conditions may differ. Where two headings read alike, the source gives them in different places. Each block holds one compound with its values, some of them ahead of it.

Experiments:
[1] = target: T1, SIRT2 (Homo sapiens, UniProt Q8IXJ6); assay: SIRT2 enzymatic assay with fluorogenic p53 peptide substrate RHKK(Ac)-AMC; assay type: biochemical; conditions: for increase in potency over 9a: SIRT2 IC50 ratio to 9a
T1 sequence (Q8IXJ6 1-389): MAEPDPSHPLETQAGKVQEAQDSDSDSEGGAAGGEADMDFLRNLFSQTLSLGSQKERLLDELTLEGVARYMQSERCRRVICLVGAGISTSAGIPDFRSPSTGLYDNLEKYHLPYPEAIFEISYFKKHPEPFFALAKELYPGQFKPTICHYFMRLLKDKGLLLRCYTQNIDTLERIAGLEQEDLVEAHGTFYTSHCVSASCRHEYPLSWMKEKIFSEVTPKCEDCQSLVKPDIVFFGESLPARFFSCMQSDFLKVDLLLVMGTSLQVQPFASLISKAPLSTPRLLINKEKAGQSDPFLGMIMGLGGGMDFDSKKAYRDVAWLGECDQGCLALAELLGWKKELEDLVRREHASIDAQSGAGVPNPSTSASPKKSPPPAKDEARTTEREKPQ
Description: The newly synthesized analogues, based on our previously validated thienopyrimidinone scaffold, were designed to contain a variety of N-3 (columns a–i, Table 1) and N-7′ substituents (rows 9–49, Table 1), with the aim to conduct a relatively broad survey of the SAR features of this scaffold. These compounds were all synthesized according to the previously disclosed method[81] (Schemes SS1 and SS2, Supporting Information) and assessed as racemates. SIRT2 inhibitory activity was assessed using a validated SIRT2 assay, based on a fluorogenic peptide substrate derived from p53 (see Experimental Section). For this assay, suramin was used as a positive control and gave similar inhibitory activity to that observed previously.[83] A vehicle (DMSO) was used as the negative control. SIRT2 inhibitory activity was measured at two compound concentrations, 1 μM (n = 2) and 10 μM (n = 2) for all compounds.
Enzymatic assays were performed by Reaction Biology Corporation (http://www.reactionbiology.com) as described before.[81] In vitro SIRT assays were conducted by using the fluorogenic peptide substrate from p53 residues 379–382 RHKK(Ac)-AMC for SIRT1–3. The assay buffer contained 50 mM Tris-HCl, pH 8.0, 137 mM NaCl, 2.7 mM KCl, 1 mM MgCl2, 1 mg mL^–1 bovine serum albumin, and 1% DMSO. The protocol involved a two-step procedure. The fluorogenic substrate with the acetylated lysine side chain was incubated with the SIRT enzyme to produce the deacetylated products, which were then digested in the second step by the addition of a developer to produce the fluorescent signal proportional to the amount of deacetylated substrates. Deacetylation of substrate peptides was used as a read out of the SIRT activity. All compounds were freshly prepared as 10 mM stock solutions in DMSO and serially diluted to the indicated concentration in the reaction. All test compounds were preincubated with the human SIRTs for about 10 min before commencing the reaction through the addition of substrate. Fluorescence was read (λex, 360 nm; λem, 460 nm) using an EnVision Multilabel Plate Reader (PerkinElmer). The percentages of enzyme activity (relative to DMSO controls) and IC50 values were calculated using the GraphPad Prism 4 program based on a sigmoidal dose–response equation. The number of replicates is stated in the corresponding text.

[2] = target: T2, SIRT1 (Homo sapiens, UniProt Q96EB6); assay: SIRT1 enzymatic assay with fluorogenic p53 peptide substrate RHKK(Ac)-AMC; assay type: biochemical; conditions: Table 3
T2 sequence (Q96EB6 1-747): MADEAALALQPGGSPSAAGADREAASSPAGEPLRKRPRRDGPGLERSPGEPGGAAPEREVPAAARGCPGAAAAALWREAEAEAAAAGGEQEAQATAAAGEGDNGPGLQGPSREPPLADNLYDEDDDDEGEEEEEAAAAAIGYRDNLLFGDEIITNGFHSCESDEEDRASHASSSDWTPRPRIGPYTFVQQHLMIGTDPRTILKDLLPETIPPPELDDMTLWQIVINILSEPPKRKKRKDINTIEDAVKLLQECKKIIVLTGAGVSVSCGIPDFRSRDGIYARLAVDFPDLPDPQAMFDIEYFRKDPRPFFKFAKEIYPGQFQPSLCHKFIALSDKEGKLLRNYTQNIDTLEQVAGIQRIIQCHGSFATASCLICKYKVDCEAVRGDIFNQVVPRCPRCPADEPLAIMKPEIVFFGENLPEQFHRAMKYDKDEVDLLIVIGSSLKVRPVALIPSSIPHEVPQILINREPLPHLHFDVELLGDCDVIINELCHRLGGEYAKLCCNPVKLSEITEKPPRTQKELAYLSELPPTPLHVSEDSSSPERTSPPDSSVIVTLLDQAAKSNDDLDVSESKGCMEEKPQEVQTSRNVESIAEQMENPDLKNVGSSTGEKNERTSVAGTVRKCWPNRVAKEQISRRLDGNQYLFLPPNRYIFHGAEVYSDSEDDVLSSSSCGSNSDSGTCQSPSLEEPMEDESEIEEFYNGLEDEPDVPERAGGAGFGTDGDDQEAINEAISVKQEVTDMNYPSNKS

[3] = target: T3, SIRT3 (Homo sapiens, UniProt Q9NTG7); assay: SIRT3 enzymatic assay with fluorogenic p53 peptide substrate RHKK(Ac)-AMC; assay type: biochemical; conditions: Table 3
T3 sequence (Q9NTG7 1-399): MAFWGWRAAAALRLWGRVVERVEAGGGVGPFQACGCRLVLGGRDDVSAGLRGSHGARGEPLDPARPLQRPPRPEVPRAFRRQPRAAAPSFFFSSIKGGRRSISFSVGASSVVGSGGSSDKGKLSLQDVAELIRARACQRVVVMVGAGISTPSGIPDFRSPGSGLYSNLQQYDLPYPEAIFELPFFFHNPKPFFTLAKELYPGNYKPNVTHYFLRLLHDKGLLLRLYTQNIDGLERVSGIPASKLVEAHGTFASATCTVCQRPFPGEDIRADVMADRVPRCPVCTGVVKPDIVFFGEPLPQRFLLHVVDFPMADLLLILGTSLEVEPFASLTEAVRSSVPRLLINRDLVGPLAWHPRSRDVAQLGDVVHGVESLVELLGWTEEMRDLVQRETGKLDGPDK

[4] = test system: acetylated (lysine-40) α-tubulin in MCF-7 cells; assay: Tubulin acetylation assay, Western blot in MCF-7 cells with TSA; conditions: 0-50 μM for 24 h with 50 nM TSA, N = 3
[5] = test system: SIRT1; conditions: Figure 1, cited from earlier work; for IC50: differing in vitro assays and conditions
[6] = test system: SIRT2; parameters: method as in PMID 15780941, PMID 26982234, PMID 25275824, PMID 11483616, PMID 16618762; conditions: Figure 1; differing in vitro assays and conditions; cited from earlier work
[7] = test system: SIRT3; conditions: Figure 1, cited from earlier work
[8] = test system: SIRT6; parameters: method as in PMID 25672491; conditions: Figure 1; cited from earlier work
[9] = supplement CSV, SIRT2, 10uM, read-out: Inhibition@10uM

inhibition at 10 µM ([1]; 10 μM compound, n = 2, read-out: SIRT2 percentage inhibition (at 10 μM)): -6.5% | inhibition at 10 µM [1, 9]: -6.5%
Compound: COc1ccc(Cn2cnc3sc4c(c3c2=O)CCC(NCc2cccc(Cl)c2)C4)c2ccccc12 (stereo not shown) [12c]

SIRT2 selectivity over SIRT1 [2]: more than 100 fold | SIRT2 selectivity over SIRT3 [3]: more than 100 fold | SIRT2/SIRT3 selectivity ([3]; ratio of IC50 values): >256
Compound: N#Cc1ccc(CNC2CCc3c(sc4ncn(Cc5cccc6cccnc56)c(=O)c34)C2)cc1 (stereo not shown) [15e, 4-(((4-Oxo-3-(quinolin-8-ylmethyl)-3,4,5,6,7,8-hexahydrobenzo[4,5]thieno[2,3-d]pyrimidin-7-yl)amino)methyl)benzonitrile]

increase in potency over 9a [1]: 9 fold
Compound: COc1ccccc1CNC1CCc2c(sc3ncn(Cc4c(OC)ccc5ccccc45)c(=O)c23)C1 (stereo not shown) [16a]

increase in potency over 9a [1]: 32 fold
Compound: COc1ccc(CNC2CCc3c(sc4ncn(Cc5c(OC)ccc6ccccc56)c(=O)c34)C2)cc1 (stereo not shown) [18a]

inhibition at 10 µM [1, 9]: 57.6%
Compound: COc1cccc(Cn2cnc3sc4c(c3c2=O)CCC(NCc2ccncc2)C4)c1 (stereo not shown) [20h]

inhibition at 10 µM [1, 9]: 17.5%
Compound: O=c1c2c3c(sc2ncn1Cc1ccccc1)CC(NCc1cncnc1)CC3 (stereo not shown) [22g]

inhibition at 10 µM [1, 9]: 18.3%
Compound: COc1cccc(Cn2cnc3sc4c(c3c2=O)CCC(NCc2cncnc2)C4)c1 (stereo not shown) [22h]

SIRT2 inhibitory activity (in words) [1]: lacking in vitro activity against SIRT2
Compound: O=c1c2c3c(sc2ncn1Cc1ccccc1)CC(NCC1CCCO1)CC3 (stereo not shown) [25g]
effect on α-tubulin acetylation level [4]: no effect on tubulin acetylation levels; also recorded: showed no effect on the acetylation of α-tubulin

inhibition at 10 µM [1, 9]: 3.44%
Compound: COc1cccc(Cn2cnc3sc4c(c3c2=O)CCC(NCC2CCCO2)C4)c1 (stereo not shown) [25h]

inhibition at 10 µM [1, 9]: 33.4%
Compound: COc1cccc(Cn2cnc3sc4c(c3c2=O)CCC(NCc2ccco2)C4)c1 (stereo not shown) [28h]

SIRT2 selectivity over SIRT1 [2]: > 200 fold | SIRT2 selectivity over SIRT3 [3]: ~30 fold
Compound: COc1ccc(Cn2cnc3sc4c(c3c2=O)CCC(NCc2c(C)noc2C)C4)c2ccccc12 (stereo not shown) [29c]
effect on α-tubulin acetylation level [4]: increased levels of α-tubulin acetylation in a dose dependent manner; also recorded: increased the α-tubulin acetylation level at 10 μM and retained consistent to 50 μM

inhibition at 10 µM [1, 9]: 26.7%
Compound: O=c1c2c3c(sc2ncn1Cc1ccccc1)CC(NCCc1cccnc1)CC3 (stereo not shown) [31g]

inhibition at 10 µM [1, 9]: 26.4%
Compound: COc1ccccc1NC1CCc2c(sc3ncn(Cc4cccc(-c5ccccc5)c4)c(=O)c23)C1 (stereo not shown) [35i]

inhibition at 10 µM [1, 9]: 30.5%
Compound: O=c1c2c3c(sc2ncn1Cc1cccc2cccnc12)CC(NC1CCCC1)CC3 (stereo not shown) [41e]

inhibition at 10 µM [1, 9]: 21.6%
Compound: O=c1c2c3c(sc2ncn1Cc1cccc(-c2ccccc2)c1)CC(NC1CCCc2ccccc21)CC3 (stereo not shown) [46i]

Further lines, the compound ahead of its results:

Compound: 6-(2-Aminoethyl)-3-((2-methoxynaphthalen-1-yl) methyl)-5-methylthieno [2,3-d] pyrimidin-4(3H)-one [56a]
SIRT2 inhibitory activity (in words) [1]: inactive | SIRT2 percentage inhibition (at 10 μM) ([1]; Table 2 middle value, 10 μM compound): 25% | Inhibition@10uM ([1]; supplement CSV, SIRT2, 10uM): 24.87

Compound: O=c1c2c3c(sc2ncn1Cc1ccccc1)CC(NCc1ccncc1)CC3 (stereo not shown) [20g]
inhibition at 10 µM [1, 9]: 32.6%

Compound: COc1cccc(Cn2cnc3sc4c(c3c2=O)CCC(NCc2ccccn2)C4)c1 (stereo not shown) [21h]
inhibition at 10 µM [1, 9]: 18.2%

Compound: COc1ccc(CNC2CCc3c(sc4ncn(Cc5c(OC)ccc6ccccc56)c(=O)c34)C2)cn1 (stereo not shown) [23a]
inhibition at 10 µM [1, 9]: 87.9%

Compound: COc1cccc(Cn2cnc3sc4c(c3c2=O)CCC(NCc2c(C)nn(C)c2C)C4)c1 (stereo not shown) [27h]
inhibition at 10 µM [1, 9]: 14.4%

Compound: COc1cccc(Cn2cnc3sc4c(c3c2=O)CCC(NCCc2cccnc2)C4)c1 (stereo not shown) [31h]
inhibition at 10 µM [1, 9]: 40.5%

Compound: COc1ccccc1NC1CCc2c(sc3ncn(Cc4cccc5ccccc45)c(=O)c23)C1 (stereo not shown) [35b]
inhibition at 10 µM [1, 9]: 22.3%

Compound: COc1cccc(NC2CCc3c(sc4ncn(Cc5cccc(-c6ccccc6)c5)c(=O)c34)C2)c1 (stereo not shown) [37i]
inhibition at 10 µM [1, 9]: 29.6%

Compound: COc1ccc2ccccc2c1Cn1cnc2sc(CCN(C)C)c(C)c2c1=O [57a]
SIRT2 inhibitory activity (in words) [1]: inactive

Compound: N#C/C(=C\c1ccc(-c2cc(Cl)ccc2Cl)o1)C(=O)Nc1cccc2ncccc12 [AGK2]
effect on α-tubulin acetylation level [4]: showed significant increase of α-tubulin acetylation at 10 to 50 μM | IC50 [5]: > 50000 nM

Compound: O=c1[nH]c(=S)[nH]c(-c2ccccc2)c1Cc1c(O)ccc2ccccc12 [Cambinol, cambinol]
IC50 [6]: 51000 nM | IC50 [5]: 56000 nM

Compound: NC(=O)c1cccnc1 [Nicotinamide, nicotinamide]
IC50 [6]: […] | IC50 [5]: 85000 nM

Compound: O=C(Nc1cnccc1Br)c1cccc(-c2ccc3ccccc3c2)c1 [compound 4]
IC50 [6]: 600 nM | IC50 [5]: > 100000 nM | IC50 ([7]; differing in vitro assays): > 100000 nM

Compound: CSc1ccc(CSc2cccc(C(=O)Nc3ccc(C#N)cc3)c2)cc1 [compound 5]
IC50 [6]: 2400 nM | SIRT1 inhibition @ 10 μM ([5]; 10 μM): 3% | SIRT3 inhibition @ 10 μM ([7]; 10 μM): no inhibition

Compound: CC1(C)Cc2c(-c3ccc(Cl)cc3)n[nH]c2C(C(N)=O)C1 (stereo not shown) [compound 7]
IC50 [6]: 1700 nM | IC50 [5]: 800 nM

Compound: Cc1cc(C)nc(SCC(=O)Nc2ncc(Cc3cccc4ccccc34)s2)n1 [compound 8, SirReal2]
IC50 [8]: > 200000 nM | IC50 [6]: […] | IC50 [5]: > 100000 nM
